Laboratory results reported in ChEMBL document CHEMBL1131112, “Matrix metalloproteinase inhibitors: a structure-activity study” (J Med Chem, 1998).

Columns and labels:
[1] = biological target: Matrix metalloproteinase-9 (Homo sapiens, UniProt P14780)
Description: The compound was tested for its binding affinity towards 92 kDa gelatinase (Matrix metalloprotease-9)

Neutrophil collagenase = Neutrophil collagenase (Homo sapiens, UniProt P22894)
Description: The compound was tested for its binding affinity towards neutrophil collagenase (Matrix metalloprotease-8)

[2] = biological target: 72 kDa type IV collagenase (Homo sapiens, UniProt P08253)
Sequence of 72 kDa type IV collagenase (P08253 whole entry): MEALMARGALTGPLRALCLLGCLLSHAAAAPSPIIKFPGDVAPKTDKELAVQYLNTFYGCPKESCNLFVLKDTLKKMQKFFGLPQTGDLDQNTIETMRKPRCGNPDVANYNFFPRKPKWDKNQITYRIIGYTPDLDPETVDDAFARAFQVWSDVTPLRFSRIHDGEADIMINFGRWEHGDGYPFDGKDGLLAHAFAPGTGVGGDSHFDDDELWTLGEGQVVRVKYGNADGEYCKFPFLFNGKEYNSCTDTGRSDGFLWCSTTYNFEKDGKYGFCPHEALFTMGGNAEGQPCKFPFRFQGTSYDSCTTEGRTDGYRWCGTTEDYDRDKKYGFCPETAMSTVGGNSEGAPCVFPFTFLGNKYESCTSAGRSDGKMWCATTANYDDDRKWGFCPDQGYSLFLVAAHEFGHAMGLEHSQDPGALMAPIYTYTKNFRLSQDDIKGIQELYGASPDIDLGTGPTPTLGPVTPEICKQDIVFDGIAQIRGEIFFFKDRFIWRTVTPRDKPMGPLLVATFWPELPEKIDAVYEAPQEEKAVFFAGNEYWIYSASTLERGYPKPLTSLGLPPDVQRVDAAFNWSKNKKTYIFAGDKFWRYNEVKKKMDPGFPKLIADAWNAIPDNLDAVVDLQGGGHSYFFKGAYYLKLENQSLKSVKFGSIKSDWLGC
Description: Binding affinity towards 72 kDa gelatinase (Matrix metalloprotease-2)

Sequence of Matrix metalloproteinase-9 (P14780 whole entry): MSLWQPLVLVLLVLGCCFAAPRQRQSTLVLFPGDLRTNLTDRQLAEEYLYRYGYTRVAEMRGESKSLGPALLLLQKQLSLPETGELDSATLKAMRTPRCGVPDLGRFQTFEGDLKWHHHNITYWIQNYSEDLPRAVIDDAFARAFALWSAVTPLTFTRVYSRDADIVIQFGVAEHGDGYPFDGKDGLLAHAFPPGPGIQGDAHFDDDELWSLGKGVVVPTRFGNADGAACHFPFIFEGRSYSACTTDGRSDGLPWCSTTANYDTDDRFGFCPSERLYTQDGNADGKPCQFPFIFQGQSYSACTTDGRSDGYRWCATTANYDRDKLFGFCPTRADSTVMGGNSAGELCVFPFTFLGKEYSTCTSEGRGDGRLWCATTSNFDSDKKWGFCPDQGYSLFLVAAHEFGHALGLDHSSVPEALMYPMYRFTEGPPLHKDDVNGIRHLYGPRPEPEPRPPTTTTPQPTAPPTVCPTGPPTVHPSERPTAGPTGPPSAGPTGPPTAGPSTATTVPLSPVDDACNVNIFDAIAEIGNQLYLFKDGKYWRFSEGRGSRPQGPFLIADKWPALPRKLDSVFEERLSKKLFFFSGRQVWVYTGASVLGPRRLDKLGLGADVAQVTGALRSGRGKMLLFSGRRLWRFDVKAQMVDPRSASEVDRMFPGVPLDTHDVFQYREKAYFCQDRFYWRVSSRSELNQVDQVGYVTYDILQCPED
Sequence of Neutrophil collagenase (P22894 whole entry): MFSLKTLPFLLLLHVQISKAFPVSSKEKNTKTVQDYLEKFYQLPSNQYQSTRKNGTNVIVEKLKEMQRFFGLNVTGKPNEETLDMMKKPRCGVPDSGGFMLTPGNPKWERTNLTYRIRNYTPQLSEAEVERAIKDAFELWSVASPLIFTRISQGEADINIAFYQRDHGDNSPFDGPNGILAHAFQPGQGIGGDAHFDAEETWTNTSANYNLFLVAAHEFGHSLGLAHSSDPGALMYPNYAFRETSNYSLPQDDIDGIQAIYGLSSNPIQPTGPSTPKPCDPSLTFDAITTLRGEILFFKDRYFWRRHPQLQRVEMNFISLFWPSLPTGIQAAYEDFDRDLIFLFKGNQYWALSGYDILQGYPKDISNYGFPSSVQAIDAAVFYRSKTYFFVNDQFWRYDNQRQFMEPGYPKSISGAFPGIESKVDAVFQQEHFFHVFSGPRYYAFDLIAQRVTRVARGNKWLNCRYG

Compound	Ki [1] [nM]	Ki (Neutrophil collagenase) [nM]	Ki [2] [nM]
CNC(=O)[C@@H](Cc1ccc(-c2ccccc2)cc1)NC(=O)[C@@H](CC(=O)NO)CC(C)C	4.1	2.4	4
CNC(=O)[C@H](Cc1c[nH]c2ccccc12)NC(=O)[C@@H](CC(=O)O)CC(C)C	100	17	170
CCCCCO[C@H](CC(=O)NO)C(=O)N[C@@H](Cc1c[nH]c2ccccc12)C(=O)NC	26	7.8	43
CC(C)C[C@H](CC(=O)NO)C(=O)N[C@H](Cc1ccc2ccccc2c1)C(=O)N[C@@H](C)c1ccccc1	6.9	14	13
CC(C)C[C@H](CC(=O)NO)C(=O)N[C@@H](Cc1c[nH]c2ccccc12)C(=O)NCc1ccc2c(c1)OCO2	1.7	3.7	6.9
CC(C)C[C@H](CC(=O)NO)C(=O)N[C@H](Cc1cccc2ccccc12)C(=O)NCCCN1CCOCC1	0.58	0.3	0.59
CC(C)C[C@H](CC(=O)NO)C(=O)N[C@H](Cc1ccc(-c2ccccc2)cc1)C(=O)NCCCN1CCOCC1	3.6	6.8	6.7
CCCC[C@H](CC(=O)NO)C(=O)N[C@@H](Cc1c[nH]c2ccccc12)C(=O)NC	0.54	0.3	0.57
CC(C)C[C@H](CC(=O)NO)C(=O)N[C@H](Cc1ccncc1)C(=O)NCc1ccccc1	1.5	0.96	
CNC(=O)[C@@H](Cc1ccncc1)NC(=O)[C@@H](CC(=O)NO)CC(C)C	2.8	1.7	0.96
CNC(=O)[C@@H](CC(C)C)NC(=O)C(CC(C)C)C(O)C(=O)NO (single isomer, unassigned)	2.3	0.53	0.47
CC(C)C[C@H](CC(=O)NO)C(=O)N[C@@H](Cc1c[nH]c2ccccc12)C(=O)NCc1ccco1	1.7	0.49	0.92
CC(C)CC(CC(=O)NO)C(=O)N[C@@H](Cc1c[nH]c2ccccc12)C(=O)NC1CCc2ccccc21 (single isomer, unassigned)	30	24	
CC(C)C[C@H](CC(=O)NO)C(=O)N[C@H](Cc1ccc(-c2ccccc2)cc1)C(=O)N[C@@H](C)c1ccccc1	6.3	13	25
CNC(=O)[C@H](Cc1cn(C)c2ccccc12)NC(=O)[C@@H](CC(=O)NO)CC(C)C	1.6	0.66	
CNC(=O)[C@H](Cc1c[nH]c2ccccc12)NC(=O)[C@@H](CC(=O)NOC)CC(C)C	7.9	7.7	6.3
CC(C)C[C@H](CC(=O)NO)C(=O)N[C@@H](Cc1c[nH]c2ccccc12)C(=O)NCCO	0.76	0.35	0.44
CC(C)C[C@H](CC(=O)NO)C(=O)N[C@@H](Cc1c[nH]c2ccccc12)C(=O)NCCNC(=O)OCc1ccccc1	1.1	0.94	
CC(C)C[C@H](CC(=O)NO)C(=O)N[C@@H](Cc1c[nH]c2ccccc12)C(=O)N1CCCC1	26	17	20
CC(C)C[C@H](CC(=O)NO)C(=O)N[C@H](Cc1ccncc1)C(=O)N[C@@H](C)c1ccccc1	2.5	0.7	1.9

Compound	Ki [1] [nM]	Ki (Neutrophil collagenase) [nM]	Ki [2] [nM]
CC(C)C[C@H](CC(=O)NO)C(=O)N[C@H](Cc1ccc2ccccc2c1)C(=O)NCCCN1CCOCC1	3.5	4.5	3
CC(C)C[C@H](CC(=O)NO)C(=O)N[C@@H](Cc1c[nH]c2ccccc12)C(=O)N1CCCCC1	13	27	19
CC(C)C[C@H](CC(=O)NO)C(=O)N[C@@H](Cc1c[nH]c2ccccc12)C(=O)NC1CCCC1	3	1.6	2.6
CC(C)C[C@H](CC(=O)NO)C(=O)N[C@H](Cc1ccc2ccccc2c1)C(=O)NCc1ccccc1	5.3	7.7	18
CNC(=O)[C@@H](Cc1csc2ccccc12)NC(=O)[C@@H](CC(=O)NO)CC(C)C	0.83	0.45	0.44
CC(C)C[C@H](CC(=O)NO)C(=O)N[C@@H](Cc1c[nH]c2ccccc12)C(=O)NCCc1ccc(O)cc1	1.1	0.1	0.52
CC(C)C[C@H](CC(=O)NO)C(=O)N[C@@H](Cc1c[nH]c2ccccc12)C(=O)NCc1ccccc1	5	1.2	2
CC(C)C[C@H](CC(=O)NO)C(=O)N[C@@H](Cc1c[nH]c2ccccc12)C(=O)NCc1cccnc1	0.78	0.11	0.52
CNC(=O)[C@H](Cc1c[nH]c2ccccc12)NC(=O)[C@@H](CC(=O)NOCc1ccccc1)CC(C)C	13	16	11
CNC(=O)[C@@H](Cc1ccc2ccccc2c1)NC(=O)[C@@H](CC(=O)NO)CC(C)C	0.99	1.3	0.7
CNC(=O)[C@@H](Cc1cnc2ccccc2c1)NC(=O)[C@@H](CC(=O)NO)CC(C)C	0.7	1	1
CC(C)C[C@H](CC(=O)NO)C(=O)N[C@@H](Cc1c[nH]c2ccccc12)C(=O)NCc1nccs1	0.9	0.56	
CC(C)C[C@H](CC(=O)NO)C(=O)N[C@@H](Cc1c[nH]c2ccccc12)C(=O)NCc1ccncc1	1.5	0.29	0.6
CC(C)C[C@H](CC(=O)NO)C(=O)N[C@@H](Cc1c[nH]c2ccccc12)C(=O)NC1CCc2ccccc21 (single isomer, unassigned)	100	130	
CNC(=O)[C@@H](Cc1cccc2ccccc12)NC(=O)[C@@H](CC(=O)NO)CC(C)C	1.3	0.64	0.42
CCCCCCCC[C@H](CC(=O)NO)C(=O)N[C@@H](Cc1c[nH]c2ccccc12)C(=O)NC	0.63	1.6	0.66
CC(C)C[C@H](CC(=O)NO)C(=O)N[C@@H](Cc1c[nH]c2ccccc12)C(=O)N1CCOCC1	8.7	6.9	3.5
CC(C)C[C@H](CC(=O)NO)C(=O)N[C@H](Cc1ccncc1)C(=O)NCCc1ccc(O)cc1	1.7	0.33	1.9
CC(C)C[C@H](CC(=O)NO)C(=O)N[C@@H](Cc1c[nH]c2ccccc12)C(=O)NCc1nc2ccccc2[nH]1	3	5.2	7.3
CC(C)C[C@H](CC(=O)NO)C(=O)N[C@H](Cc1ccc(-c2ccccc2)cc1)C(=O)NCCc1ccc(O)cc1	6.5	13	8.1

Compound	Ki [1] [nM]	Ki (Neutrophil collagenase) [nM]	Ki [2] [nM]
CNC(=O)[C@H](Cc1c[nH]c2ccccc12)NC(=O)[C@@H](CC(=O)NOCC(=O)OC)CC(C)C	580	460	71000
CC(C)C[C@H](CC(=O)NO)C(=O)N[C@H](Cc1ccc(-c2ccccc2)cc1)C(=O)NCc1ccccc1	3	3.6	
CC(C)C[C@H](CC(=O)NO)C(=O)N[C@H](Cc1cccnc1)C(=O)NCc1ccccc1	2.7	0.63	
CCCCCNC(=O)[C@H](Cc1c[nH]c2ccccc12)NC(=O)[C@@H](CC(=O)NO)CC(C)C	7.1	6.5	4.6
CC(C)C[C@H](CC(=O)NO)C(=O)N(C)[C@@H](Cc1c[nH]c2ccccc12)C(=O)NCCCN1CCOCC1	69	77	55
CC(C)C[C@H](CC(=O)NO)C(=O)N[C@@H](Cc1c[nH]c2ccccc12)C(=O)NCCCN1CCOCC1	1.9	0.39	0.71
CNC(=O)[C@H](Cc1c[nH]c2ccccc12)NC(=O)C(CC(C)C)C(O)C(=O)NO (single isomer, unassigned)	1.7	0.41	0.89
CC(C)C[C@H](CC(=O)NO)C(=O)N[C@@H](Cc1c[nH]c2ccccc12)C(=O)NC1CC1	1.2	0.34	0.88
CC(C)C[C@H](CC(=O)NO)C(=O)N[C@@H](Cc1c[nH]c2ccccc12)C(=O)NCCCn1ccnc1	1.1	0.59	1.3
CNC(=O)[C@H](Cc1c[nH]c2ccccc12)N(C)C(=O)[C@@H](CC(=O)NO)CC(C)C	42	21	17
CNC(=O)[C@@H](CC(C)C)NC(=O)[C@@H](CC(=O)NO)CC(C)C	2.5	0.65	1.1
CNC(=O)[C@@H](Cc1ccccc1)NC(=O)[C@@H](CC(=O)NO)CC(C)C	0.96		
CCCCCC[C@H](CC(=O)NO)C(=O)N[C@@H](Cc1c[nH]c2ccccc12)C(=O)NC	0.41	0.24	0.21
CC(C)C[C@H](CC(=O)NO)C(=O)N[C@@H](Cc1c[nH]c2ccccc12)C(=O)NCCc1ccccn1	1.4	0.49	0.73
CC(C)C[C@H](CC(=O)NO)C(=O)N[C@@H](Cc1c[nH]c2ccccc12)C(=O)N(C)C	22	8.5	19
CNC(=O)[C@H](Cc1c[nH]c2ccccc12)NC(=O)[C@@H](CC(=O)NO)OC(C)C	18	12	42
CC(C)C[C@H](CC(=O)NO)C(=O)N[C@@H](Cc1c[nH]c2ccccc12)C(=O)N[C@@H](C)c1ccccc1	3.7	0.75	0.64
CC(C)C[C@H](CC(=O)NO)C(=O)N[C@H](Cc1ccc2ccccc2c1)C(=O)NCCc1ccc(O)cc1	1.7	4.5	8.1
CC(C)C[C@H](CC(=O)NO)C(=O)N[C@@H](Cc1c[nH]c2ccccc12)C(=O)NCc1ccccn1	0.68	0.43	0.54
CNC(=O)[C@@H](Cc1cccc2cccnc12)NC(=O)[C@@H](CC(=O)NO)CC(C)C	1.5	0.54	1.3
